In US20080318789A1, “Seed germination acceleration” (priority 2007, published 2008):

Test system: canola (cv. Westar) seed
Assay: Petri plate germination study of treated canola seed at 6° C.
Assay type: in vivo
Conditions: petri plates at 6° C., n = 3 plates of 15 seeds; for Percent germinated Day 5: day 5 after treatment; for Percent germinated Day 6: day 6 after treatment; for Percent germinated Day 7: day 7 after treatment
Protocol: For all seed treatments, 1 ppm active ingredient refers to 1 microgram active ingredient per gram of seed. For these studies, GA3, GA4/7, 6BA or CPPU were each dispensed into a 15 ml centrifuge tube, and 2.5 ml of de-ionized water was then added to each tube. The solution was mixed on a vortex mixer and 0.015 ml of this solution was then placed in another 15 ml. centrifuge tube along with 0.6 grams of canola seeds (cv. Westar). Seeds were mixed by rotating 360° on a Labquake Rotisserie for 30 minutes. To simulate commercial seed treatments, the amount of solutions was just sufficient to wet the seeds. After treating, the seeds were placed in weigh boats for overnight drying. Petri plate studies: Each standard petri plate (100 mm×50 mm) contained 1 blue Anchor germination circle (3¼ inches in diameter) drenched with 8 ml of de-ionized water cooled to 6° C., Each treatment consisted of 3 petri plates of 15 seeds each. After plating, the petri plates were placed in a Nalgene plastic container pre-cooled to 6° C. The plastic container containing the petri plates was placed in a growth chamber at 6° C. with a 16-hour light cycle for the duration of the study. Seeds were visually observed daily for germination as determined by emergence of root from the seed coat. Canola seeds (cv. Westar) were treated with solutions containing GA4/7, GA3, 6BA, or CPPU. The solutions were sufficient only to wet the seeds. The amount of applied GA4/7 ([…]), GA3 (0.5, 5 or 50 ppm), 6BA (5 or 50 ppm), or CPPU (5 or 50 ppm) is expressed as ppm or micrograms of compound per gram of seed.

In the case of `c1ccc(CNc2ncnc3nc[nH]c23)cc1` [6BA], the “Percent germinated Day 5” value (seed treatment 5 ppm) is reported as 0%, the “Percent germinated Day 6” value (seed treatment 5 ppm) is reported as 0% and the “Percent germinated Day 7” value (seed treatment 5 ppm) is reported as 0%. The “Percent germinated Day 5” value (seed treatment 50 ppm) was 0%, the “Percent germinated Day 6” value (seed treatment 50 ppm) was 0.3% and the “Percent germinated Day 7” value (seed treatment 50 ppm) was 0.3%.

With `O=C(Nc1ccccc1)Nc1ccnc(Cl)c1` [CPPU, 1-(2-chloro-4-pyridyl)-3-phenylurea] the “Percent germinated Day 5” value (seed treatment 5 ppm) was 0%, the “Percent germinated Day 6” value (seed treatment 5 ppm) was 0% and the “Percent germinated Day 7” value (seed treatment 5 ppm) was 0.3%. The “Percent germinated Day 5” value (seed treatment 50 ppm) was 0%, the “Percent germinated Day 6” value (seed treatment 50 ppm) was 0% and the “Percent germinated Day 7” value (seed treatment 50 ppm) was 0%.

For `C=C1C[C@]23C[C@@]1(O)CC[C@H]2[C@@]12C=C[C@H](O)[C@@](C)(C(=O)O1)[C@H]2[C@@H]3C(=O)O` [GA3, (1α,2β,4aα,4bβ,10β)-2,4-a,7-trihydroxy-1-methyl-8-methylenegibb-3-ene-1,10-dicarboxylic acid 1,4a-lactone], the “Percent germinated Day 5” value (seed treatment 0.5 ppm) was 0%, the “Percent germinated Day 6” value (seed treatment 0.5 ppm) was 0.3% and the “Percent germinated Day 7” value (seed treatment 0.5 ppm) was 0.3%. For the same compound, the “Percent germinated Day 5” value (seed treatment 5 ppm) was 0%, the “Percent germinated Day 6” value (seed treatment 5 ppm) was 0.3% and the “Percent germinated Day 7” value (seed treatment 5 ppm) was 0.7%. The “Percent germinated Day 5” value (seed treatment 50 ppm) was 0.3%, the “Percent germinated Day 6” value (seed treatment 50 ppm) was 2.7% and the “Percent germinated Day 7” value (seed treatment 50 ppm) was 5.0%.
